Results taken from a melting point compilation (Tetko et al.; mined from patent text by program, amines drawn as free bases though some values may be those of a salt).

Row | SMILES | melting point [°C]
1 | NC[C@@H]1CNc2cccc(-c3ccc(Cl)cc3Cl)c2O1 | 163
2 | COC(=O)C1=C(C)NC(C)=C(C(=O)OC)C1c1ccccc1-c1cccs1 | 173 to 175
3 | COc1cc([N+](=O)[O-])c(N)cc1Cl | 128 to 129
4 | COc1cc(-c2n[nH]c(N)n2)c(OC)cc1C | 248
5 | O=C(NCc1ncc(C(F)(F)F)cc1Cl)c1ccccc1C(F)(F)F | 127 to 130
6 | Cc1cnc(N2CCC(c3ccc(N)cc3)CC2)n1C | 219 to 220
7 | CCOC(=O)c1ccc(C=C(C)c2cc3c(cc2C)C(C)(C)CCC3(C)C)cc1 | 109 to 110
8 | CCn1c(C(O)(C2CC2)C2CC2)nc(-c2ccncc2)c1-c1ccc(Cl)cc1 | 185 to 188
9 | Cc1nnc(C(C)NC(=O)CC(C)C)c(=O)[nH]1 (stereo unspecified) | 224 to 226
10 | CC#CCNC(=C[N+](=O)[O-])NCCSCc1[nH]cnc1C | 148 to 151
11 | CCN(CC)c1cccc2c1OC1(CC1)C2=O | 39.3
12 | O=C1NN=C(c2ccc(NC(=O)C(F)(F)F)cc2)C2CC12 (stereo unspecified) | 242 to 243
13 | Nc1cc(-n2ncc(Cl)c(Cl)c2=O)c(F)cc1Cl | 186
14 | O=C1c2cccc(O)c2Cc2cccc(O)c21 | 231 to 233
15 | CCCCCCCCCCCCCC(=O)c1c(O)cc(C)c(O)c1CCC | 62
16 | CC(=O)c1c(-c2ccccc2)nn2ccccc12 | 84 to 85
17 | Cc1ccc(-c2ccc(-c3nnn[nH]3)cc2)cc1C | 192 to 194
18 | O=C1CCC2c3ccccc3CCC2N1 (stereo unspecified) | 227 to 228
19 | Cc1cc2c(s1)Nc1ccccc1N=C2N1CCN[C@@H](CO)C1 | 90
20 | CC(=O)OCCSc1nc(C(C)(C)C)nn1C(=O)N(C)C | 110 to 112
21 | CC(C)Nc1ccc(-c2ncc(C(F)(F)F)cc2Cl)cc1[N+](=O)[O-] | 107 to 109
22 | O=C(c1ccccc1)N1CCC2OC2C1 (stereo unspecified) | 212 to 213
23 | CCOC(=O)C1[C@@H]2[C@@H](O)[C@@H]3O[C@H](c4ccc(C(C)(C)C)cc4)OC[C@H]3O[C@H]12 (stereo partly specified) | 113 to 116

Row | SMILES | melting point [°C]
24 | COc1ccc2[nH]cc(CC(=O)N3CCN(c4ccc(N)cc4)CC3)c2c1 | 119 to 120
25 | Cn1c(-c2cccc(Cl)c2)cc(-c2cccc(Cl)c2)nc1=O | 178 to 181
26 | O=C(CI)Nc1ccc(C(=O)O)cc1 | 194 to 196
27 | CCCCOC(=O)CCCCSc1cc(C)nc(N)n1 | 45 to 47
28 | CNC(=O)C1CN(C(c2ccccc2)c2ccccc2)C1 | 103 to 107
29 | CCn1c(=O)c2c(nc(/C=C/c3ccc(OC)c(OC)c3OC)n2C)n(CC)c1=O | 153 to 154
30 | CN1CCN(c2cc([N+](=O)[O-])ccc2Cl)CC1 | 63 to 64
31 | O=c1c2cn(S(=O)(=O)CCCCl)nc2n(CC2CC2)c(=O)n1CC1CC1 | 95 to 97
32 | CCc1cc(Oc2ccc(S(C)(=O)=O)nc2)cc2cc(C3=NCC(CC(=O)N4CCS(=O)CC4)S3)[nH]c12 (stereo unspecified) | 194 to 196
33 | Cc1nc(-c2ccc(C#N)cc2)sc1C(=O)N1CC(O)O[C@@](Cn2cncn2)(c2ccc(F)cc2F)[C@H]1C (stereo partly specified) | 225 to 228
34 | Fc1cccc2c1OC1CN(Cc3ccccc3)CC1O2 (stereo unspecified) | 80 to 81
35 | COC(=O)Cc1cc(NC=O)cc(OC)n1 | 61 to 63
36 | Cc1nc(O)c(C)c(Cl)n1 | 224 to 225
37 | CCCC(=O)c1ccc(=O)[nH]c1C | 167 to 168
38 | COc1ccc(Cl)cc1C(=O)CCC(=O)O | 113 to 115
39 | C=CCN(CCC12CC3CC(CC(C3)C1)C2)C(=O)NCCCc1ccncc1 | 99 to 102
40 | Brc1ccc(OC2CN(C(c3ccccc3)c3ccccc3)C2)cc1 | 116 to 117
41 | N#CC=Cc1ccc(Cl)cc1C(=O)c1ccccc1F | 130 to 133
42 | Cn1nnnc1SCC1c2cc(OC(=O)c3cccs3)c(OC(=O)c3cccs3)cc2CCN1C(=O)OCC(Cl)(Cl)Cl (stereo unspecified) | 139 to 146
43 | OCC1Cc2cc(Cl)cc(C3CCCCC3)c2O1 (stereo unspecified) | 67 to 69
44 | CC(=O)Nc1ccc2c(c1)OC(C)O2 (stereo unspecified) | 155 to 156
45 | ClC1=NC(Cl)(C(Cl)(Cl)C(Cl)(Cl)Cl)N=C1Cl | 74 to 75
46 | CC1(C)Oc2ccc(C#N)cc2[C@@H](NC(=NC#N)Oc2ccccc2)[C@@H]1O (relative stereo) | 186 to 188

Row | SMILES | melting point [°C]
47 | Nc1nc(O)c2c(n1)NCC(CCc1nc(C(=O)N[C@@H](CCC(=O)O)C(=O)O)cs1)C2 (stereo partly specified) | 210 to 212
48 | COc1ccc([N+](=O)[O-])c2c1CCC(C(=O)Nc1ccc(N3CCOCC3)cc1)C2 (stereo unspecified) | 251 to 253
49 | CCCCCCCCCCCCCCCCCCNC(=O)Nc1cccc([N+](=O)[O-])c1 | 102 to 104
50 | CCC(=O)Cc1ccc(OCc2nnn[nH]2)cc1 | 148 to 150
51 | CCC(C)P(=S)(NP(=S)(C(C)CC)C(C)CC)C(C)CC (stereo unspecified) | 110 to 114
52 | CCN(CC)OP(=O)(Oc1ccccc1)Oc1ccccc1 | 51 to 53
53 | CCOC(=O)C1CN(C(=O)C2=Cc3cc(OC)c(OC)cc3CCC2)CCN1 (stereo unspecified) | 105 to 106
54 | Cc1cc(C#N)ccc1-c1cccc(-c2nc3cc(C#N)ccc3[nH]2)c1 | 247 to 250
55 | CC(c1ccc(-c2ccccc2)s1)N(O)C(N)=O (stereo unspecified) | 150 to 152
56 | O=c1nc(-c2ccccn2)sc2ccc(Br)cc12 | 253 to 254
57 | c1ccc2[nH]c3c4ccccc4nc-3cc2c1 | 249 to 251
58 | CC1(C)SC(=O)C2OC=CC=C21 (stereo unspecified) | 42
59 | O=C1OCc2c1cccc2[N+](=O)[O-] | 134 to 136
60 | O=C(O)C[C@H](NC(=O)CNC(=O)c1csc(NC(=O)NCc2ccccn2)n1)C(=O)NCc1ccccn1 | 164
61 | C#CC(C)(C)OC(C)Oc1ccc(NC(=O)N(C)C)cc1Cl (stereo unspecified) | 99 to 101
62 | Cc1ccc2c(c1)C(=O)CC21CNC(=O)C1 (stereo unspecified) | 162 to 164
63 | O=S(=O)(Nc1ccc(-c2nn(S(=O)(=O)c3ccccc3)c3c2Cc2ccccc2-3)cc1)c1ccccc1 | 251 to 252
64 | CCc1cc2c(s1)-n1c(C)nnc1C(N)N=C2c1ccccc1Cl (stereo unspecified) | 130 to 131
65 | NC(=O)C(=O)NC(C(=O)OC(c1ccccc1)c1ccccc1)c1ccccc1 (stereo unspecified) | 168
66 | CCOC(=O)C(=O)NNC(=O)c1ccc(OCC)cc1 | 126
67 | Clc1ccc2c(c1)C=C(Cn1ccnc1)c1ccsc1S2 | 154 to 156
68 | NC(=O)c1cn(CCO)nc1[N+](=O)[O-] | 148 to 150

Further lines, results first:

Row | melting point [°C] | SMILES
69 | 116 to 123 | CN(C)CCCNC(=O)c1ccccc1NS(=O)(=O)c1cccc(C(F)(F)F)c1
70 | 123 | CC(C)(O)CNC(=O)c1cccc(-c2cccc3cc(Cc4cc(F)cc(Cl)c4)sc23)c1
71 | 209 to 211 | O=C(Nc1ccc2cc(CN3CCCCC3)ccc2c1)N1CCC(c2ccc(F)cc2)CC1
72 | 178 to 179 | N=C(Nc1cc(Cl)cc(NC(=O)/C=C/c2ccccc2C(F)(F)F)c1)c1cccs1
73 | 104 to 106 | CCOC(=O)Cc1nn(C/C=C/c2cccc(C(F)(F)F)c2F)c(=O)c2ccccc12
74 | 96 to 97 | CCOC(=O)[C@H](CO)NC(=O)[C@H](CC(=O)OCc1ccccc1)NC(=O)OC(C)(C)C
75 | 78 to 80 | COC(=O)Cc1ccc(S(=O)(=O)c2ccc(Cl)cc2)cc1
76 | 136 to 137 | CCCC(=O)Cc1ccc(C(=O)Nc2ccc3cc(CN4CCCCCC4)cnc3c2C)cc1
77 | 125 | Cc1ccc(C(=O)N2CCc3cc(S(=O)(=O)N4CC(c5ccccc5)NC4=O)ccc32)cc1 (stereo unspecified)
78 | 60 | CCCCCc1ccc(-c2ccc(CCc3ccc(F)cc3)cc2)cc1
79 | 107 to 109 | O=C1c2ccccc2S(=O)(=O)N1CCCCOc1ccc(O)cc1
80 | 170 to 171 | COC(=O)c1ccc2c(=O)n(CC(C)C)c(CNC(=O)OC(C)(C)C)c(-c3cccs3)c2c1
81 | 247 | CCOC(=O)C1=C(Cc2ccccc2)Nc2n[nH]cc2C1c1ccccc1Cl (stereo unspecified)
82 | 224 to 227 | COC(=O)c1ccc2nc3n(c(=O)c2c1)CCC3=Cc1ccccc1
83 | 144 to 146 | CCn1cc(C(=O)NCc2ccc(Cl)cc2)c(=O)c2cc(CCCO)sc21
84 | 102 | CC(=O)CSc1nc2ccc(Cc3ccccc3)cc2[nH]1
85 | 184 to 185 | Cc1cccc(CC(=O)O)c1OCCCc1cn(-c2ccc(C(F)(F)F)cn2)nc1C1CCCCC1

Row | melting point [°C] | SMILES
86 | 164 to 165 | COc1cc(COc2nn(Cc3ccccc3)cc2C(N)=O)ccc1OCc1nc(-c2ccccc2)oc1C
87 | 95 to 97 | COC(=O)c1c(C)nc(C)c(C(=O)OCC2CCCO2)c1-c1cccc(O)c1 (stereo unspecified)
88 | 249 to 250 | CN1CCCN(C)P1(=O)Cc1ccc(NC(=O)C2=Cc3cc(-c4ccccc4)ccc3CC2)cc1
89 | 156 to 159 | CC(=O)OCC(=O)NCCCn1c(-c2ccc(Br)cc2)csc1=Nc1ccccc1
90 | 218 to 219 | CCCCOc1nc(N)c2[nH]c(=O)n(CCCNS(=O)(=O)c3cccc(CC(=O)OC)c3)c2n1
91 | 75.5 to 76.5 | COC(=O)C(C)(C)CCCOc1cc(C)c(OCc2ccccc2)cc1C
92 | 151 to 152 | CC(=O)c1ccc(SCCOc2ccc3ccccc3c2)cc1
93 | 141 to 142 | COc1ccc(CCCCOCc2cccc(/C=C/c3cccc(NC(=O)CCC(C)(C)C(=O)O)c3)n2)cc1
94 | 101 to 104 | CCCc1c(OCCCOCCCOc2ccc3ccc(OCC(=O)O)cc3c2C(C)=O)ccc(C(C)=O)c1O
95 | 138 to 140 | O=C(Nc1ccc(CN2CCNCC2)cc1)c1cc(=O)c2ccccc2o1
96 | 214 | COc1ccc(S(=O)(=O)C2(C(=O)NO)CCN(Cc3ccc(-c4ccccn4)cc3)CC2)cc1
97 | 115 to 157 | CC(C)COc1ccc(-c2ccc3nnn(Cc4ccc5ccccc5n4)c3n2)cc1F
98 | 75 to 76 | CCCc1c(OCCCCCOc2ccccc2CCC(=O)O)ccc2c1OCCC2=O
99 | 200 to 202 | Cc1ccccc1NC(=O)Nc1ccc(CNC(=O)OC(C)(C)C)cc1
100 | 222 | Cc1cc2c(-c3ccccc3)c(CC(=O)NCc3ccccc3)n(C)c(=O)c2cc1C
101 | 167 to 168 | COc1ccc(C2Sc3cc(Oc4ccccc4)ccc3N(CCN(C)C)C(=O)C2OC(C)=O)cc1F (stereo unspecified)
